A short description of data set [1]: Acid/base and solution properties of ascorbic acid. In kind it is physicochemical. The settings on record: aqueous dose solution, pH 5.8.
A short description of data set [2]: Effect of ascorbic acid concentration on radiochemical purity (Example 4). The class given is physicochemical. The settings on record: pH 5.8, FIG. 3. The protocol: The integrity of a radiopharmaceutical is measured by the radiochemical purity (RCP) of the radiolabeled compound using ITLC or more preferably HPLC. The advantage of using HPLC is that radio-impurities caused by radiolytic degradation can be separated from the radiopharmaceutical under certain chromatographic conditions. […] The radiopharmaceutical compositions of this invention are effective in maintaining the stability of samples for up to ten hours.
This example describes the effect of ascorbic acid concentration on radiochemical purity. In this example, the radiochemical purity (RCP) of the ^18F-labeled drug product (2-tert-butyl-4-chloro-5-[4-(2-[^18F]fluoro-ethoxymethyl)-benzyloxy]-2H-pyridazin-3-one) was monitored for solutions having an ascorbic acid concentration range from 200 mg/mL (saturation level) to 20 mg/mL, at pH 5.8.

On to `O=C1O[C@H]([C@@H](O)CO)C(O)=C1O` [Ascorbic acid], for which the “saturation level (concentration)” value in data set [1] was determined as 200 mg/mL.

For `CC(C)(C)n1ncc(OCc2ccc(COCC[18F])cc2)c(Cl)c1=O` [2-tert-butyl-4-chloro-5-[4-(2-[^18F]fluoro-ethoxymethyl)-benzyloxy]-2H-pyridazin-3-one], the “radiochemical purity (RCP) level” value in data set [2] (ascorbic acid 20 mg/mL) is recorded as “increase in impurities (i.e., lower RCP level)”; in data set [2] (ascorbic acid 200 to 50 mg/mL) it was “do not significantly change”.

These data come from patent publication US9687571B2, “Stabilization of radiopharmaceutical compositions using ascorbic acid” (Lantheus Medical Imaging, Inc., priority 2009, dated 2017).
